Experimental data reported in publication PMC4685012 (Bioorganic & medicinal chemistry, 2015).

What was measured:
[1] = tested on: MCF-7 cells; test: Cell viability; type: cell-based; settings: for IC50: Homo sapiens, MCF7, 72 h, read-out: Anti-proliferative activity IC50, MCF-7; for Antiproliferative activity against MCF-7, in words: MCF-7 cells
[2] = tested on: A549 cells; test: Cell viability; type: cell-based; settings: for Antiproliferative activity against A549, in words: A549 cells; for IC50: Homo sapiens, A549, 72 h, read-out: Anti-proliferative activity IC50, A549

Row | SMILES | IC50 [1] [µM] | IC50 [2] [µM] | Antiproliferative activity against MCF-7, in words [1] | Antiproliferative activity against A549, in words [2]
1 | CC[C@@H]1OC(=O)[C@H](C)[C@@H](O[C@@H]2C[C@](C)(OC)[C@H](O)[C@@H](C)O2)[C@@H](C)[C@@H](O[C@@H]2O[C@H](C)C[C@H](N(C)Cc3ccccc3-c3cn(CCCCCCC(=O)NO)nn3)[C@H]2O)[C@](C)(O)C[C@@H](C)CN(C)[C@H](C)[C@@H](O)[C@]1(C)O [Compound 15b, (Azithromycin-3′-(N-(2-triazolylbenzyl)))-N-hydroxyheptanamide] | > 20 | > 20 | devoid of antiproliferative activities | devoid of antiproliferative activities
2 | CC[C@H]1OC(=O)[C@@H](C)[C@H](O[C@H]2C[C@@](C)(OC)[C@](O)(CN(C)Cc3ccc(-c4cn(CCCCCCC(=O)NO)nn4)cc3)[C@H](C)O2)[C@H](C)[C@H](O[C@H]2O[C@@H](C)C[C@@H](N(C)C)[C@@H]2O)[C@@](C)(O)C[C@H](C)CN(C)[C@@H](C)[C@H](O)[C@@]1(C)O [Compound 39f, (Azithromycin-4′′-(methylamino)-N(methyl)(4-benzyltriazolyl))-N-hydroxyheptanamide] | > 20 | > 20 | non-cytotoxic | non-cytotoxic
3 | CC[C@@H]1OC(=O)[C@H](C)[C@@H](O[C@@H]2C[C@](C)(OC)[C@H](O)[C@@H](C)O2)[C@@H](C)[C@@H](O[C@@H]2O[C@H](C)C[C@H](N(C)Cc3cccc(-c4cn(CCCCCCC(=O)NO)nn4)c3)[C@H]2O)[C@](C)(O)C[C@@H](C)CN(C)[C@H](C)[C@@H](O)[C@]1(C)O [Compound 16b, (Azithromycin-3′-(N-(3-triazolylbenzyl)))-N-hydroxyheptanamide] | – | – | potently inhibited | potently inhibited
4 | CC[C@@H]1OC(=O)[C@@H](C)[C@H](O[C@H]2C[C@@](C)(OC)[C@@H](O)[C@H](C)O2)[C@@H](C)[C@H](O[C@H]2O[C@@H](C)C[C@@H](N(C)C)[C@@H]2O)[C@](C)(O)C[C@H](C)CN(Cc2ccc(-c3cn(CCCCC(=O)NO)nn3)cc2)[C@H](C)[C@H](O)[C@@]1(C)O [Compound 8d, (Azithromycin-(N10-(4-triazolylbenzyl)))-N-hydroxypentanamide] | > 20 | > 20 | devoid of antiproliferative activities | devoid of antiproliferative activities

Second part, led by results:

Row | IC50 [1] [µM] | IC50 [2] [µM] | SMILES | Antiproliferative activity against MCF-7, in words [1] | Antiproliferative activity against A549, in words [2]
5 | > 20 | > 20 | CC[C@H]1OC(=O)[C@H](C)C(=O)[C@H](C)[C@@H](O[C@@H]2O[C@H](C)C[C@H](N(C)Cc3ccccc3-c3cn(CCCCCCC(=O)NO)nn3)[C@H]2O)[C@@](C)(OC)C[C@@H](C)C2=NCCN3C(=O)O[C@@]1(C)[C@H]3[C@H]2C [Compound 24b, (Tricyclic Ketolide-3′-(N-(2-triazolylbenzyl)))-N-hydroxyheptanamide] | devoid of antiproliferative activities | devoid of antiproliferative activities
6 | > 20 | > 20 | CC[C@H]1OC(=O)[C@@H](C)[C@H](O[C@H]2C[C@@](C)(OC)[C@@H](O)[C@H](C)O2)[C@H](C)[C@H](O[C@H]2O[C@@H](C)C[C@@H](N(C)Cc3ccc(-c4cn(CCCC(=O)NO)nn4)cc3)[C@@H]2O)[C@@](C)(O)C[C@H](C)CN(C)[C@@H](C)[C@H](O)[C@@]1(C)O [Compound 17c] | devoid of antiproliferative activities | devoid of antiproliferative activities
